In PubChem BioAssay AID328 (DTP/NCI, 2004) one finds T/C data, which are given here for 11 compounds.

The experiment relates to BDF1 mice, P388 leukemia ip, median survival T/C. The experiment can be described thus: NCI In Vivo Anticancer Drug Screen. Data for tumor model P388 Leukemia (intraperitoneal) in B6D2F1 (BDF1) mice. The note with it: endpoint: median survival time, higher = longer survival. In outline:
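Reported as T/C, where T is the survival measurement in dosed animals and C the same measurement in vehicle controls.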

The mark [1] stands for this setting: dose: 100.0 mg/kg/injection, schedule: Q01DX009 (ip), vehicle: saline.
[2] abbreviates: dose: 200.0 mg/kg/injection, schedule: Q01DX009 (ip), vehicle: saline.
Where [3] appears, read: dose: 50.0 mg/kg/injection, schedule: Q01DX009 (ip), vehicle: saline with Tween-80.
Where [4] appears, read: dose: 100.0 mg/kg/injection, schedule: Q01DX009 (ip), vehicle: saline with Tween-80.
Where [5] appears, read: dose: 200.0 mg/kg/injection, schedule: Q01DX009 (ip), vehicle: saline with Tween-80.

Values joined by “and” are separate entries in the source; they are usually repeats but may differ in a detail not shown here. Identical values can stand only once. Toxic doses and inconclusive results are not listed.

`O=C(NC(CO)Cc1ccccc1)c1ccccc1` (centres undefined): the T/C was 102 % of control (dose: 9.0 mg/kg/injection, schedule: Q01DX009 (ip), vehicle: Klucel (hydroxypropylcellulose) (HPC)); 95 % of control (dose: 18.0 mg/kg/injection, schedule: Q01DX009 (ip), vehicle: Klucel (hydroxypropylcellulose) (HPC)); 99 % of control (dose: 36.0 mg/kg/injection, schedule: Q01DX009 (ip), vehicle: Klucel (hydroxypropylcellulose) (HPC)); 99 % of control (dose: 72.0 mg/kg/injection, schedule: Q01DX009 (ip), vehicle: Klucel (hydroxypropylcellulose) (HPC)).

Take `COC(=O)C12OCC34C(CC5C(C)=C(O)C(=O)CC5(C)C3C(O)C1O)OC(=O)C(O)C24` (centres undefined): the T/C reads like this: (dose: 5.0 micrograms/kg/injection, schedule: Q01DX009 (ip), vehicle: saline) 100 % of control; (dose: 10.0 micrograms/kg/injection, schedule: Q01DX009 (ip), vehicle: saline) 109 % of control; (dose: 20.0 micrograms/kg/injection, schedule: Q01DX009 (ip), vehicle: saline) 118 % of control.

Consider `O=C(N/N=C/C=C/c1ccccc1)[C@H](O)[C@@H](O)C(=O)N/N=C/C=C/c1ccccc1`, for which the T/C is 88 % of control (dose: 100.0 mg/kg/injection, schedule: Q01DX009 (ip), vehicle: Klucel (hydroxypropylcellulose) (HPC)); 96 % of control (dose: 200.0 mg/kg/injection, schedule: Q01DX009 (ip), vehicle: Klucel (hydroxypropylcellulose) (HPC)); 92 % of control (dose: 400.0 mg/kg/injection, schedule: Q01DX009 (ip), vehicle: Klucel (hydroxypropylcellulose) (HPC)).

Take `CCOC1=NCCCCC1`: the T/C was 98 % of control (dose: 50.0 mg/kg/injection, schedule: Q01DX009 (ip), vehicle: saline); 95 % of control under setting [1]; 98 % of control under setting [2]; 98 % of control (dose: 400.0 mg/kg/injection, schedule: Q01DX009 (ip), vehicle: saline).

For the compound `OCC1CSC2(CCCCC2)N1` (centres undefined), the T/C reads like this: under setting [3], 105 % of control; under setting [4], 105 % of control; under setting [5], 93 % of control.

Consider `CN(Cc1cnc2nc(N)nc(N)c2n1)c1ccc(C(=O)N[C@@H](CCC(=O)O)C(=O)O)cc1`, for which the T/C is, setting by setting: (dose: 0.37 mg/kg/injection, schedule: Q01DX009 (ip), vehicle: sodium bicarbonate) 172 % of control; (dose: 0.38 mg/kg/injection, schedule: Q01DX009 (ip), vehicle: saline) 150 % of control and 155 % of control; (dose: 0.5 mg/kg/injection, schedule: Q01DX005 (ip), vehicle: saline with Tween-80) 113 % of control; (dose: 0.5 mg/kg/injection, schedule: Q01DX005 (ip), vehicle: saline) 184 % of control; (dose: 0.5 mg/kg/injection, schedule: Q01DX009 (ip), vehicle: saline with Tween-80) 163 % of control; (dose: 0.5 mg/kg/injection, schedule: Q01DX009 (ip), vehicle: sodium bicarbonate) 176 % of control. For the same compound, the T/C was 245 % of control (dose: 0.5 mg/kg/injection, schedule: Q01DX010 (ip), vehicle: other); 190 % of control and 195 % of control (dose: 0.75 mg/kg/injection, schedule: Q01DX009 (ip), vehicle: saline); 209 % of control (dose: 0.75 mg/kg/injection, schedule: Q01DX009 (ip), vehicle: sodium bicarbonate); 171 % of control and 190 % of control and 203 % of control (dose: 0.9 mg/kg/injection, schedule: Q01DX009 (ip), vehicle: sodium bicarbonate); 104 % of control (dose: 1.0 mg/kg/injection, schedule: Q01DX005 (ip), vehicle: saline with Tween-80); 194 % of control (dose: 1.0 mg/kg/injection, schedule: Q01DX005 (ip), vehicle: saline). Besides, the T/C was 181 % of control (dose: 1.0 mg/kg/injection, schedule: Q01DX009 (ip), vehicle: saline with Tween-80); 236 % of control and 150 % of control and 181 % of control (dose: 1.0 mg/kg/injection, schedule: Q01DX009 (ip), vehicle: sodium bicarbonate); 300 % of control (dose: 1.0 mg/kg/injection, schedule: Q01DX010 (ip), vehicle: other); 228 % of control and 179 % of control and 205 % of control (dose: 1.3 mg/kg/injection, schedule: Q01DX009 (ip), vehicle: sodium bicarbonate); 229 % of control and 222 % of control (dose: 1.5 mg/kg/injection, schedule: Q01DX009 (ip), vehicle: saline); 222 % of control (dose: 2.0 mg/kg/injection, schedule: Q01DX009 (ip), vehicle: saline with Tween-80). The T/C reads like this: (dose: 2.25 mg/kg/injection, schedule: Q01DX009 (ip), vehicle: sodium bicarbonate) 231 % of control; (dose: 2.3 mg/kg/injection, schedule: Q01DX009 (ip), vehicle: sodium bicarbonate) 227 % of control and 239 % of control and 263 % of control; (dose: 3.0 mg/kg/injection, schedule: Q01DX009 (ip), vehicle: saline) 231 % of control and 236 % of control; (dose: 3.0 mg/kg/injection, schedule: Q01DX009 (ip), vehicle: sodium bicarbonate) 95 % of control and 100 % of control; (dose: 3.5 mg/kg/injection, schedule: Q01DX009 (ip), vehicle: sodium bicarbonate) 241 % of control and 244 % of control and 104 % of control; (dose: 8.64 mg/kg/injection, schedule: Q04DX003 (ip), vehicle: sodium bicarbonate) 182 % of control. The T/C is 243 % of control (dose: 10.0 mg/kg/injection, schedule: Q04DX004 (ip), vehicle: sodium bicarbonate); 199 % of control (dose: 14.4 mg/kg/injection, schedule: Q04DX003 (ip), vehicle: sodium bicarbonate); 250 % of control (dose: 15.0 mg/kg/injection, schedule: Q04DX004 (ip), vehicle: sodium bicarbonate); 221 % of control (dose: 20.0 mg/kg/injection, schedule: Q04DX003 (ip), vehicle: sodium bicarbonate); 248 % of control (dose: 20.0 mg/kg/injection, schedule: Q04DX004 (ip), vehicle: sodium bicarbonate); 202 % of control (dose: 24.0 mg/kg/injection, schedule: Q04DX003 (ip), vehicle: sodium bicarbonate). Moreover, the T/C is 292 % of control (dose: 25.0 mg/kg/injection, schedule: Q04DX003 (ip), vehicle: sodium bicarbonate); 248 % of control (dose: 25.0 mg/kg/injection, schedule: Q04DX004 (ip), vehicle: sodium bicarbonate); 238 % of control (dose: 30.0 mg/kg/injection, schedule: Q04DX003 (ip), vehicle: sodium bicarbonate); 237 % of control (dose: 40.0 mg/kg/injection, schedule: Q04DX003 (ip), vehicle: sodium bicarbonate).

Turning to `CCCC[P+](c1ccccc1)(c1ccccc1)c1ccccc1`, the T/C by setting is: (dose: 0.6 mg/kg/injection, schedule: Q01DX009 (ip), vehicle: saline) 122 % of control; (dose: 1.2 mg/kg/injection, schedule: Q01DX009 (ip), vehicle: saline) 105 % of control; (dose: 2.5 mg/kg/injection, schedule: Q01DX009 (ip), vehicle: saline) 150 % of control; (dose: 5.0 mg/kg/injection, schedule: Q01DX009 (ip), vehicle: saline) 115 % of control; (dose: 40.0 mg/kg/injection, schedule: Q01DX009 (ip), vehicle: saline) 95 % of control.

For `C=CCCCCCCCCC(=O)N(CC#N)CC(C)C`, the T/C is, setting by setting: under setting [3], 100 % of control; under setting [4], 109 % of control; under setting [5], 109 % of control.

On to `O=C(CC(c1ccccc1)c1c(O)c2ccccc2oc1=O)c1ccccc1` (centres undefined), for which the T/C runs as follows: (dose: 0.39 mg/kg/injection, schedule: Q01DX009 (ip), vehicle: saline with Tween-80) 108 % of control; (dose: 0.78 mg/kg/injection, schedule: Q01DX009 (ip), vehicle: saline with Tween-80) 106 % of control; (dose: 1.56 mg/kg/injection, schedule: Q01DX009 (ip), vehicle: saline with Tween-80) 97 % of control; (dose: 3.12 mg/kg/injection, schedule: Q01DX009 (ip), vehicle: saline with Tween-80) 90 % of control; (dose: 12.5 mg/kg/injection, schedule: Q04DX003 (ip), vehicle: saline with Tween-80) 120 % of control; (dose: 25.0 mg/kg/injection, schedule: Q04DX003 (ip), vehicle: saline with Tween-80) 109 % of control. Moreover, the T/C was 92 % of control (dose: 50.0 mg/kg/injection, schedule: Q04DX003 (ip), vehicle: saline with Tween-80); 101 % of control (dose: 100.0 mg/kg/injection, schedule: Q04DX003 (ip), vehicle: saline with Tween-80); 108 % of control (dose: 200.0 mg/kg/injection, schedule: Q04DX003 (ip), vehicle: saline with Tween-80).

Regarding `CCCCCCCCC(O)CCC` (centres undefined), the T/C was 100 % of control under setting [1] and 109 % of control under setting [2].

`COc1ccc(CC(=O)N2CCc3cc(OC)c(OC)cc3C2O)cc1OC` (centres undefined): the T/C is 101 % of control (dose: 12.5 mg/kg/injection, schedule: Q01DX009 (ip), vehicle: saline with Tween-80); 89 % of control (dose: 25.0 mg/kg/injection, schedule: Q01DX009 (ip), vehicle: saline with Tween-80); 94 % of control under setting [3]; 114 % of control under setting [4].
